Measurements from ChEMBL document CHEMBL3991601, “The target landscape of clinical kinase drugs” (Science, 2017).
Activity calls are given as the source filed them. Cut-off read from the data, not from the text of the source, for most assays here: actives have a measured Kd and inactives only a lower limit.

Molecular target: Non-receptor tyrosine-protein kinase TYK2 (Homo sapiens, UniProt P29597)
Note: in the data inactive means no Kd found up to 30 µM.

Structure (SMILES) | Kd
N[C@@H]1CCCN(c2c(/C=C3\SC(=O)NC3=O)cccc2-c2ccccc2)C1 | > 30 µM (inactive)
Cc1ccc(S(=O)(=O)Nc2nc3ccccc3nc2Nc2ccc3nsnc3c2)cc1 | > 30 µM (inactive)

Molecular target: MAP kinase-activated protein kinase 2 (Homo sapiens, UniProt P49137)
Sequence (P49137 whole entry): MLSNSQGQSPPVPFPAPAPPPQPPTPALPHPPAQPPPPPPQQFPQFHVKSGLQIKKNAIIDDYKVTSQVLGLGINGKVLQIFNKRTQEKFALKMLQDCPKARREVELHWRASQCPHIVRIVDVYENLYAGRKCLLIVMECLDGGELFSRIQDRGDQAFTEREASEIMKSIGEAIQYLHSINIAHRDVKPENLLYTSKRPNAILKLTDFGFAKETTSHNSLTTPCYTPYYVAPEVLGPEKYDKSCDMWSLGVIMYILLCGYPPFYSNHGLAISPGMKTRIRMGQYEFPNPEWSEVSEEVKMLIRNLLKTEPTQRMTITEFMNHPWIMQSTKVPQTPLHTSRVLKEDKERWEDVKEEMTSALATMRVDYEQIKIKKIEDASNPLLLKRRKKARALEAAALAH

Structure (SMILES) | Kd
N[C@@H]1CCCN(c2c(/C=C3\SC(=O)NC3=O)cccc2-c2ccccc2)C1 | > 30 µM (inactive)
Cc1ccc(S(=O)(=O)Nc2nc3ccccc3nc2Nc2ccc3nsnc3c2)cc1 | > 30 µM (inactive)

Molecular target: T1, Serine/threonine-protein kinase TAO1 (Homo sapiens, UniProt Q7L7X3)
T1 sequence (Q7L7X3 whole entry): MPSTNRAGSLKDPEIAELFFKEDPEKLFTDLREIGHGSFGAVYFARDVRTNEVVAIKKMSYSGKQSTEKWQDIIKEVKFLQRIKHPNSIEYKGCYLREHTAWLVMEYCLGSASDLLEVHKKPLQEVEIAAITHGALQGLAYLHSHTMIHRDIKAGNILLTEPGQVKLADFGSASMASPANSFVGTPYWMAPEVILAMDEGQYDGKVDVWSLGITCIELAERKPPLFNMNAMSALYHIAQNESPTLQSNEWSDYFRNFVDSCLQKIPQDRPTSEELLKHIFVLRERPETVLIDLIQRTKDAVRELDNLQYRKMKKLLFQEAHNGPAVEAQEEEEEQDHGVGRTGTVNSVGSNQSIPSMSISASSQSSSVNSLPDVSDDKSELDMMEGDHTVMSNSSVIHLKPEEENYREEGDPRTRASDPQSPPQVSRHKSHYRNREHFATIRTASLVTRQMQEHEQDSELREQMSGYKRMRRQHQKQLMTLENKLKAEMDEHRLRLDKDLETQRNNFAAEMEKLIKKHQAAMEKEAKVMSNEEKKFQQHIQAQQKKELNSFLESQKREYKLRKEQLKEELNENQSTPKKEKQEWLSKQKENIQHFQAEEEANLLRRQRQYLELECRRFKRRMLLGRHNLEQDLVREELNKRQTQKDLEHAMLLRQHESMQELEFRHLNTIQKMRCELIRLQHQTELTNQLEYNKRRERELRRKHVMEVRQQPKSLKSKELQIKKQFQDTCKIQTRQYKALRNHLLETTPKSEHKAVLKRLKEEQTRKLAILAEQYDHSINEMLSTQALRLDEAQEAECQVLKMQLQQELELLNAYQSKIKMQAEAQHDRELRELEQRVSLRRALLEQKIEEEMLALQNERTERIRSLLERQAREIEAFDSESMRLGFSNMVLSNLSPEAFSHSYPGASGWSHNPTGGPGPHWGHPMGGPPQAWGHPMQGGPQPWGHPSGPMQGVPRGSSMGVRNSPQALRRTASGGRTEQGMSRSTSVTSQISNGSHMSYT

Structure (SMILES) | Kd
N[C@@H]1CCCN(c2c(/C=C3\SC(=O)NC3=O)cccc2-c2ccccc2)C1 | > 30 µM (inactive)
Cc1ccc(S(=O)(=O)Nc2nc3ccccc3nc2Nc2ccc3nsnc3c2)cc1 | > 30 µM (inactive)

Molecular target: ATP-dependent RNA helicase DDX3X (Homo sapiens, UniProt O00571)
Sequence (O00571 whole entry): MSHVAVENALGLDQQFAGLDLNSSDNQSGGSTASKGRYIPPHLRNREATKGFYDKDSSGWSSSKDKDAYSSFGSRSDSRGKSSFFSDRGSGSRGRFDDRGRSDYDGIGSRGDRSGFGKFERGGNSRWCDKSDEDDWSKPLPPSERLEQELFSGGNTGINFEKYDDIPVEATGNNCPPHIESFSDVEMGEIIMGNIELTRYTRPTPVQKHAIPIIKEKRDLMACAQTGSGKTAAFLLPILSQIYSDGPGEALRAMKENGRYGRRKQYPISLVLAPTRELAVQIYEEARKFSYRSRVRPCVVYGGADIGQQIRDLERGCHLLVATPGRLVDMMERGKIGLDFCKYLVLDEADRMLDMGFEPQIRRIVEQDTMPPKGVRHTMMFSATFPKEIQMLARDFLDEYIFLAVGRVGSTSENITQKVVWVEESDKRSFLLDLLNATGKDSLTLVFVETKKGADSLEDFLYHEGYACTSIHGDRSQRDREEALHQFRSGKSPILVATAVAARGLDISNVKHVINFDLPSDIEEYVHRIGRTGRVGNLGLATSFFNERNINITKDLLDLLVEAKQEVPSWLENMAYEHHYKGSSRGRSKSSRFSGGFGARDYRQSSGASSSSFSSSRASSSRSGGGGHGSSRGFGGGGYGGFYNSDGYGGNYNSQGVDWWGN

Structure (SMILES) | Kd
N[C@@H]1CCCN(c2c(/C=C3\SC(=O)NC3=O)cccc2-c2ccccc2)C1 | > 30 µM (inactive)
Cc1ccc(S(=O)(=O)Nc2nc3ccccc3nc2Nc2ccc3nsnc3c2)cc1 | > 30 µM (inactive)

Molecular target: Ribosomal protein S6 kinase alpha-4 (Homo sapiens, UniProt O75676)
Sequence (O75676 whole entry): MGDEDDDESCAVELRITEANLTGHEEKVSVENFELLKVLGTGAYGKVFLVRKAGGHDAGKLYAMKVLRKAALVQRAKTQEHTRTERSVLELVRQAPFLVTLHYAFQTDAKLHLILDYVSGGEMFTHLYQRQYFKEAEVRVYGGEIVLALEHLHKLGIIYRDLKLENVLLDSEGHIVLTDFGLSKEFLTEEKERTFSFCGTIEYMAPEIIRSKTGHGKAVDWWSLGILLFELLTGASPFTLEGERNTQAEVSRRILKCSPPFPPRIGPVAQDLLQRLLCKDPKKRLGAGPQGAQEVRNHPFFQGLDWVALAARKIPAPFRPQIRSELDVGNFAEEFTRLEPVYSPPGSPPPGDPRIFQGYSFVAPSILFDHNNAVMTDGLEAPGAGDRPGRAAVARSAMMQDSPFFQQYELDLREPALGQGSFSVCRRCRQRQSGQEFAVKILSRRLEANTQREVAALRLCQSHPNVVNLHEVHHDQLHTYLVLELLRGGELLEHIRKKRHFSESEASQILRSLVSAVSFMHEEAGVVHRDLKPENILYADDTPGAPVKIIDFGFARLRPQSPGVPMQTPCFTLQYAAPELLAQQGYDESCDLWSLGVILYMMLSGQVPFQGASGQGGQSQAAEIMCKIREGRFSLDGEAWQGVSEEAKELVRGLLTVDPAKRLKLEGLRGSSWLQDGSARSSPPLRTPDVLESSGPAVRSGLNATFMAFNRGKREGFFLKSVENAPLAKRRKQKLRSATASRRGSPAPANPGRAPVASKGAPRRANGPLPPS

Structure (SMILES) | Kd
N[C@@H]1CCCN(c2c(/C=C3\SC(=O)NC3=O)cccc2-c2ccccc2)C1 | > 30 µM (inactive)
Cc1ccc(S(=O)(=O)Nc2nc3ccccc3nc2Nc2ccc3nsnc3c2)cc1 | > 30 µM (inactive)

Molecular target: Mitogen-activated protein kinase kinase kinase 1 (Homo sapiens, UniProt Q13233)
Sequence (Q13233 whole entry): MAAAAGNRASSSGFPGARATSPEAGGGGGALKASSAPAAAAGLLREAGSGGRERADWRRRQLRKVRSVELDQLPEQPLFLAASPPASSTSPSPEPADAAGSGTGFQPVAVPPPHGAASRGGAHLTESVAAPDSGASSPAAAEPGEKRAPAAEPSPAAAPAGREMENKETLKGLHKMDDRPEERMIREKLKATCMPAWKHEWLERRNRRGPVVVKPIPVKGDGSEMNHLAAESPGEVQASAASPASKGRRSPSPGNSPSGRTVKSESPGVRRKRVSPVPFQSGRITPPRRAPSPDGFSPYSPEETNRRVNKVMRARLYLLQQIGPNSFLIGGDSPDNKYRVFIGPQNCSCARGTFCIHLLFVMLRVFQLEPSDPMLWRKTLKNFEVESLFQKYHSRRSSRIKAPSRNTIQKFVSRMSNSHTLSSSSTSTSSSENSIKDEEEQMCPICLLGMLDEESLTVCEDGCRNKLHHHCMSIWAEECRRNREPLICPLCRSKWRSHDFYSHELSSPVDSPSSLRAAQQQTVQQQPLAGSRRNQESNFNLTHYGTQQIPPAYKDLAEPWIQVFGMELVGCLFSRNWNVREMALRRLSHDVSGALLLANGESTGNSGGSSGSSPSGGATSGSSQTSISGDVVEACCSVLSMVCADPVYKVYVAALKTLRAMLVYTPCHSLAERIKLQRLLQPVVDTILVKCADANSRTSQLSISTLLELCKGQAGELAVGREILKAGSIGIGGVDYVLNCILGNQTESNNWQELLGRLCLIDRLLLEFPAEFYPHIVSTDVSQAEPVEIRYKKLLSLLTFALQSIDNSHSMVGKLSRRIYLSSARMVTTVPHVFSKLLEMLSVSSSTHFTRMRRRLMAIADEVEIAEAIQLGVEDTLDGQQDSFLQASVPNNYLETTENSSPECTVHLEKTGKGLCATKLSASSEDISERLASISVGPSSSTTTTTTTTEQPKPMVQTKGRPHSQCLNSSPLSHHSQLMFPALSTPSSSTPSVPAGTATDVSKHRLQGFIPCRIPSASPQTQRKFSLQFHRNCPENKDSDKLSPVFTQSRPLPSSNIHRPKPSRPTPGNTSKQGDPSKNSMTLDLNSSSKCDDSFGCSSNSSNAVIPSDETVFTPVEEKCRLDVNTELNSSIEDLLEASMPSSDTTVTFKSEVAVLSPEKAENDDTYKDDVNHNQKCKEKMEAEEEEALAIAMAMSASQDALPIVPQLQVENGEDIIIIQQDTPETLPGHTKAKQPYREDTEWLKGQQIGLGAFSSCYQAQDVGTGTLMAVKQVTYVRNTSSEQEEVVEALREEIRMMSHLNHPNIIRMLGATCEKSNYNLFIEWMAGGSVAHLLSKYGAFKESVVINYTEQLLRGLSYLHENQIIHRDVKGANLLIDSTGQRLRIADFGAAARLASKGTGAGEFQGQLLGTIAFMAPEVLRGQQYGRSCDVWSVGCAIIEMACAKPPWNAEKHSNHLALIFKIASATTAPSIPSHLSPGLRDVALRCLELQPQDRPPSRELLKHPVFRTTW

Structure (SMILES) | Kd
N[C@@H]1CCCN(c2c(/C=C3\SC(=O)NC3=O)cccc2-c2ccccc2)C1 | > 30 µM (inactive)
Cc1ccc(S(=O)(=O)Nc2nc3ccccc3nc2Nc2ccc3nsnc3c2)cc1 | > 30 µM (inactive)

Molecular target: STE20-like serine/threonine-protein kinase (Homo sapiens, UniProt Q9H2G2)

Structure (SMILES) | Kd
N[C@@H]1CCCN(c2c(/C=C3\SC(=O)NC3=O)cccc2-c2ccccc2)C1 | > 30 µM (inactive)
Cc1ccc(S(=O)(=O)Nc2nc3ccccc3nc2Nc2ccc3nsnc3c2)cc1 | > 30 µM (inactive)

Molecular target: T2, Mitogen-activated protein kinase kinase kinase 2 (Homo sapiens, UniProt Q9Y2U5)
T2 sequence (Q9Y2U5 whole entry): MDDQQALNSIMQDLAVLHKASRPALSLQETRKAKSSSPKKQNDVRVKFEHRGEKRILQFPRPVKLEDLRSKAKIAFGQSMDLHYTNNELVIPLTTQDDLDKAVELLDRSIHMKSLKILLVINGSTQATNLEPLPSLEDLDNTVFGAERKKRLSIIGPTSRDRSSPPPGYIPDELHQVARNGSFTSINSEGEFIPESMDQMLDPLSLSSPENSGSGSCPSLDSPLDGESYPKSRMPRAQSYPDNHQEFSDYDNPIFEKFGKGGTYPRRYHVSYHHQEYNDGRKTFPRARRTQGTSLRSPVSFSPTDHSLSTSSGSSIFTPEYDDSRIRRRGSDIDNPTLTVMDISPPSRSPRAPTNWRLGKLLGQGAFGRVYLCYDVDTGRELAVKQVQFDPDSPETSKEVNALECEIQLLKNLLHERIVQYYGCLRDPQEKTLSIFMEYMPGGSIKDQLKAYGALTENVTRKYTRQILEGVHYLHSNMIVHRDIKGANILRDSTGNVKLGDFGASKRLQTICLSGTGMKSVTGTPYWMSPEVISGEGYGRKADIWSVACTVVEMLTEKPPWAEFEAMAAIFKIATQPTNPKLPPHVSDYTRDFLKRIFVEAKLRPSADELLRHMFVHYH

Structure (SMILES) | Kd
N[C@@H]1CCCN(c2c(/C=C3\SC(=O)NC3=O)cccc2-c2ccccc2)C1 | > 30 µM (inactive)
Cc1ccc(S(=O)(=O)Nc2nc3ccccc3nc2Nc2ccc3nsnc3c2)cc1 | > 30 µM (inactive)

Molecular target: Atypical kinase COQ8A, mitochondrial (Homo sapiens, UniProt Q8NI60)
Sequence (Q8NI60 whole entry): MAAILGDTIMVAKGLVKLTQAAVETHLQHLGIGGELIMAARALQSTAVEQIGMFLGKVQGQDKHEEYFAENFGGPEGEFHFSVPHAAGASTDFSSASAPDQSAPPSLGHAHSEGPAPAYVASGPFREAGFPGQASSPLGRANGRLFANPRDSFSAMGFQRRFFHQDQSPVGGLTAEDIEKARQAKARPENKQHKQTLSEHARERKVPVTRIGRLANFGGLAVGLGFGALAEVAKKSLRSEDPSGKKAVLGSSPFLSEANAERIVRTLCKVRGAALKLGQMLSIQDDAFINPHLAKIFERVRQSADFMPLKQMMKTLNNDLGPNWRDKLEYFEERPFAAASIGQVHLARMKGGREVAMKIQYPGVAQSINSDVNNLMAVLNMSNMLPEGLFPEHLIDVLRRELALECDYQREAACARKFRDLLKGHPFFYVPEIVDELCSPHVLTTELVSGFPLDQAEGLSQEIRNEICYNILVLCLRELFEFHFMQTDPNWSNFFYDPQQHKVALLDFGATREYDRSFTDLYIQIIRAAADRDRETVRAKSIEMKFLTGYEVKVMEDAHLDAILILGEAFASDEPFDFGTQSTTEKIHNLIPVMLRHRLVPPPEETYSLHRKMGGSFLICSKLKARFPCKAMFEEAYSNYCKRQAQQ

Structure (SMILES) | Kd
N[C@@H]1CCCN(c2c(/C=C3\SC(=O)NC3=O)cccc2-c2ccccc2)C1 | > 30 µM (inactive)
Cc1ccc(S(=O)(=O)Nc2nc3ccccc3nc2Nc2ccc3nsnc3c2)cc1 | > 30 µM (inactive)

Molecular target: Tyrosine-protein kinase Fer (Homo sapiens, UniProt P16591)

Structure (SMILES) | Kd
N[C@@H]1CCCN(c2c(/C=C3\SC(=O)NC3=O)cccc2-c2ccccc2)C1 | > 30 µM (inactive)
Cc1ccc(S(=O)(=O)Nc2nc3ccccc3nc2Nc2ccc3nsnc3c2)cc1 | > 30 µM (inactive)

Molecular target: Deoxycytidine kinase (Homo sapiens, UniProt P27707)
Sequence (P27707 whole entry): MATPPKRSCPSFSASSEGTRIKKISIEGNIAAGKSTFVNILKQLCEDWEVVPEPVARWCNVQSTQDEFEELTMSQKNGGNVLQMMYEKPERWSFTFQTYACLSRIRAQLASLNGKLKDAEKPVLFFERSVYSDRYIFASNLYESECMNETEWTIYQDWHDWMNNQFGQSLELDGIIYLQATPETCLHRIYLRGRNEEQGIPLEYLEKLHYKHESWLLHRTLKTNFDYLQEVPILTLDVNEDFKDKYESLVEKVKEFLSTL

Structure (SMILES) | Kd
N[C@@H]1CCCN(c2c(/C=C3\SC(=O)NC3=O)cccc2-c2ccccc2)C1 | > 30 µM (inactive)
Cc1ccc(S(=O)(=O)Nc2nc3ccccc3nc2Nc2ccc3nsnc3c2)cc1 | > 30 µM (inactive)

Molecular target: Tyrosine-protein kinase Lyn (Homo sapiens, UniProt P07948)
Sequence (P07948 whole entry): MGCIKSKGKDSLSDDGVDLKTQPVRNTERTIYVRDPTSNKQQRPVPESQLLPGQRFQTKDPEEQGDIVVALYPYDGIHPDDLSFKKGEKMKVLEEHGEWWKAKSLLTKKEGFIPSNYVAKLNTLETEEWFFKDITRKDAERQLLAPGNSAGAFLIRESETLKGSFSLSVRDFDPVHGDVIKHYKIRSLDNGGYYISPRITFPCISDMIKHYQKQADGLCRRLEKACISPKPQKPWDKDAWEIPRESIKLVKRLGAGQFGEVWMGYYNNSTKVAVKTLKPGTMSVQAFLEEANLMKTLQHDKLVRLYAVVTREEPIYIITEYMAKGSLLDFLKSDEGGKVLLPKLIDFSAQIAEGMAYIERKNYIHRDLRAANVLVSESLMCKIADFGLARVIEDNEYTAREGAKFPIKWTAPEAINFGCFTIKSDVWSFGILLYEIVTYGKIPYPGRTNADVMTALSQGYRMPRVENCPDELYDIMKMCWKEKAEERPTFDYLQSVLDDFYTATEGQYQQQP

Structure (SMILES) | Kd
N[C@@H]1CCCN(c2c(/C=C3\SC(=O)NC3=O)cccc2-c2ccccc2)C1 | > 30 µM (inactive)
Cc1ccc(S(=O)(=O)Nc2nc3ccccc3nc2Nc2ccc3nsnc3c2)cc1 | > 30 µM (inactive)

Molecular target: T3, ATP-dependent 6-phosphofructokinase, platelet type (Homo sapiens, UniProt Q01813)
T3 sequence (Q01813 whole entry): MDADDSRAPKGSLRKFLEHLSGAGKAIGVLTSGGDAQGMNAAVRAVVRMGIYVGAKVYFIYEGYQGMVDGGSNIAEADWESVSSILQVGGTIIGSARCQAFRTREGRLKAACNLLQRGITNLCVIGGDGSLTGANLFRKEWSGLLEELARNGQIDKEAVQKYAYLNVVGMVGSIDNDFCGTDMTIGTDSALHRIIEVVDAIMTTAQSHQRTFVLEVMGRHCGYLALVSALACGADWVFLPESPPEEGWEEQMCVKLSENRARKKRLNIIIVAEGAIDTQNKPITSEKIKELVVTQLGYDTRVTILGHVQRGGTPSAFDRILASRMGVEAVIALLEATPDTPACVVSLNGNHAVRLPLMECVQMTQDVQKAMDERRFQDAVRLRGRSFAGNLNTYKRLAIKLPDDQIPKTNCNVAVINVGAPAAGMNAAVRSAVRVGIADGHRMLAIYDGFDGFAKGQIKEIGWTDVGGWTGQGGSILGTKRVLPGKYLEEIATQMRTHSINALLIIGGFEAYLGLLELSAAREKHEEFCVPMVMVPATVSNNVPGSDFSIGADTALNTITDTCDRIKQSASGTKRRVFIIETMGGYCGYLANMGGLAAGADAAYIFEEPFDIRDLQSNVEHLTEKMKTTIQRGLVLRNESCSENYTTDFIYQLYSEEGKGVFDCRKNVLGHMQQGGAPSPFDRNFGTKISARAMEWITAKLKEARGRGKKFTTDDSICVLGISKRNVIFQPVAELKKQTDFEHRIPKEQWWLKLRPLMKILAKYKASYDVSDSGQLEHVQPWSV

Structure (SMILES) | Kd
N[C@@H]1CCCN(c2c(/C=C3\SC(=O)NC3=O)cccc2-c2ccccc2)C1 | > 30 µM (inactive)
Cc1ccc(S(=O)(=O)Nc2nc3ccccc3nc2Nc2ccc3nsnc3c2)cc1 | > 30 µM (inactive)
